Like-named read-outs stand apart in the source and are kept apart here.
Assays:
[1] = target: human phosphodiesterase-5 (PDE5 enzyme isolated from human platelets) (Homo sapiens (Human), UniProt O76074); experiment: PDE5 assay: formation of 5′GMP from cGMP (SPA)
Description: Evaluation of the effects of compounds of the present invention on the activity of the human phosphodiesterase-5 quantified by measuring the formation of 5′GMP from cGMP using PDE5 enzyme isolated from human platelets.
Thereafter, the reaction is initiated by addition of the enzyme and the mixture is incubated for 60 min at 22° C.
For basal control measurements, the enzyme is omitted from the reaction mixture. Following incubation SPA beads are added. After 20 min at 22° C. under shaking, the amount of [3H]5′GMP is quantified with a scintillation counter (Topcount, Packard).
The standard inhibitory reference compound is dipyridamole, which is tested in each experiment at several concentrations to obtain an inhibition curve from which its IC50 value is calculated.

[2] = test system: phenylephrine-precontracted rat aortic rings; experiment: Isometric tension studies: relaxation of phenylephrine-precontracted rat aortic rings; details: for IC40: concentration where 40% relaxation was achieved
Description: After 1 week of acclimatization, rats were anesthetized. Appropriate depth of anesthesia was determined by the absence of the leg flexor response and the eyelid reflex. Then, the thorax was quickly opened by a midline incision, and the rat was sacrificed by cutting the heart and exsanguination.
Indomethacin (1 μM) was added to the saline solution.
Eligible rings were then washed several times to restore tension to the baseline level.
In some experiments, the entire length of the thoracic aorta was functionally denuded of the endothelial layer by gently scraping the luminal surface with a 1.5 mm glass rod. […] Rings were then washed several times to restore tension to the baseline level.
Indomethacin (1 μM) was added to the saline solution. […] Only vessels with at least 60% relaxation to 1 μM ACh from the tension with 300 nM were eligible.
The preparations were allowed to equilibrate for 60 min in Krebs with high glucose (25 mM) before contraction to a new single concentration of PE (300 nM).
Finally, sodium nitroprusside (0.1 mM) was added, in order to obtain maximum relaxation of arterial rings.
The amount of relaxation (percent values as means±SEM) was quantified as percent relaxation from the tension (plateau) achieved with phenylephrine.
Data are presented as mean±SEM. Statistical analysis of results has been performed by analysis of variance (ANOVA) either parametric or non-parametric (Kruskal-Wallis), followed by Bonferroni test or Dunn tests as appropriate (GraphPad Software Inc, San Diego, Calif., USA). Significance was accepted when P<0.05. Non-linear regression was conducted with GraphPad Software).

[3] = test system: human pulmonary artery smooth muscle cells (hPASMC); experiment: Measurements of cGMP in human pulmonary artery smooth muscle cells (hPASMC); format: cell-based; details: incubation 15 or 30 min; compared with sildenafil
Description: Human Pulmonary Artery Smooth Muscle Cells (hPASMC) were purchased from Clonetics™ Lonza (Lonza, reference number CC-2581) and cultured in Clonetics' smooth muscle growth medium (Clonetics™ SmGM™-2 with BulletKit™ growth factor supplements (Lonza, reference number CC-3182) at 37° C. in 5% CO2. Culture medium was replaced each 48 hours. Cells were grown in 75 cm^2 culture plates.
48 h before the experiments, cells were trypsinized (Trypsin kit One ReagentPack™ (CC-5034), Lonza) and plated in 96 well plates precoated with collagen I at 10000 cells per well. 24 h before the experiments culture medium was replaced by serum-reduced (0.5% FBS) medium.
Measurements of intracellular cGMP were performed using the Amersham cGMP EIA System (GE Healthcare, RPN226) following the instructions of the manufacturer. The assay has a sensitivity of 2 fmol cGMP per well. Briefly, incubations were terminated by adding Amersham's lysis buffer 1 and cells left for 10 min under agitation to ensure complete lysis. cGMP in samples was then acetylated using triethylamine and acetic anhydride and determined by a competitive ELISA. The ELISA is based on the competition between acetylated cGMP in cell culture lysates and a peroxidase-labelled cGMP conjugate for limited binding sites on a cGMP specific antiserum immobilized on pre-coated 96 well MTP. cGMP was determined based on a standard curve. […]

[4] = 5.0E−09M, percent inhibition of the control enzyme activity
[5] = Rattus norvegicus, High Glucose (25 mM)
[6] = Rattus norvegicus, Intact Endothelium (E+)
[7] = Rattus norvegicus, L-NAME (100 μM)
[8] = Rattus norvegicus, Without Endothelium

With `CCCc1c(CO)c(C)c2c(=O)[nH]c(-c3cc(S(=O)(=O)N4CCN(C)CC4)ccc3OCC)nn12` [Compound 1b, 2-(2-ethoxy-5-((4-methylpiperazin-1-yl)sulfonyl)phenyl)-6-(hydroxymethyl)-5-methyl-7-propylpyrrolo[2,1-f][1,2,4]triazin-4(3H)-one] as the molecule, how does the IC50 [1] read?
Its IC50 is 12 nM.

What about the “% inhibition at 5.0E−09M” value [1, 4] of the same molecule?
Its value is 34.0%.

For `CCCOc1ccc(S(=O)(=O)N2CCN(CCO)CC2)cc1-c1nn2c(CCC)c(CO)c(C)c2c(=O)[nH]1` [Compound 1n, 2-(5-((4-(2-hydroxyethyl)piperazin-1-yl)sulfonyl)-2-propoxyphenyl)-6-(hydroxymethyl)-5-methyl-7-propylpyrrolo[2,1-f][1,2,4]triazin-4(3H)-one], which “% inhibition at 5.0E−09M” value [1, 4] is on record?
The value was 33.0%.

How did the “% inhibition at 5.0E−09M” value [1, 4] turn out when `CCCOc1ccc(S(=O)(=O)N2CCN(C)CC2)cc1-c1nn2c(CCC)c(/C=N/OC)c(C)c2c(=O)[nH]1` [Compound 1o, (E)-5-methyl-2-(5-((4-methylpiperazin-1-yl)sulfonyl)-2-propoxyphenyl)-4-oxo-7-propyl-3,4-dihydropyrrolo[2,1-f][1,2,4]triazine-6-carbaldehyde O-methyl oxime] was run?
The value was 83.0%.

Which results are given for `CCCOc1ccc(S(=O)(=O)N2CCC(CCO)CC2)cc1-c1nn2c(CCC)c(/C=N/O)c(C)c2c(=O)[nH]1` [Compound 1r, (E)-2-(5-((4-(2-hydroxyethyl)piperidin-1-yl)sulfonyl)-2-propoxyphenyl)-5-methyl-4-oxo-7-propyl-3,4-dihydropyrrolo[2,1-f][1,2,4]triazine-6-carbaldehyde oxime]?
EC50 ([2]; High Glucose (25 mM)): 2.79 nM; Emax ([2]; High Glucose (25 mM)): 51%; IC40 ([2]; High Glucose (25 mM)): 89.295 nM; EC50 ([2]; Intact Endothelium (E+)): 0.0074 nM; Emax ([2]; Intact Endothelium (E+)): 91.9%; IC40 ([2]; Intact Endothelium (E+)): 0.0038 nM; EC50 ([2]; L-NAME (100 μM)): 0.935 nM; Emax ([2]; L-NAME (100 μM)): 60.4%; IC40 ([2]; L-NAME (100 μM)): 2.982 nM; EC50 ([2]; Without Endothelium): 5.94 nM; Emax ([2]; Without Endothelium): 39.8%; IC40 ([2]; Without Endothelium): >1000 nM; relaxation of rat aortic rings, result in words ([2]; intact endothelium (FIG. 2A)): more potent and effective than Sildenafil; cGMP formation in hPASMC, activity in words [3]: significantly higher activity as compared to the reference inhibitor sildenafil

`CCCc1c(C(O)CC(=O)NO)c(C)c2c(=O)[nH]c(-c3cc(S(=O)(=O)N4CCN(C)CC4)ccc3OCC)nn12` (centres unmarked) [Compound 1t, 3-(2-(2-ethoxy-5-((4-methylpiperazin-1-yl)sulfonyl)phenyl)-5-methyl-4-oxo-7-propyl-3,4-dihydropyrrolo[2,1-f][1,2,4]triazin-6-yl)-N,3-dihydroxy propanamide] was tested. Which “% inhibition at 5.0E−09M” value [1, 4] did it give?
The value was 44.9%.

How did the IC50 [1] turn out when `CCCc1c(C(O)CC#N)c(C)c2c(=O)[nH]c(-c3cc(S(=O)(=O)N4CCN(C)CC4)ccc3OCC)nn12` (centres unmarked) [Compound 1u, 3-(2-(2-ethoxy-5-((4-methylpiperazin-1-yl)sulfonyl)phenyl)-5-methyl-4-oxo-7-propyl-3,4-dihydropyrrolo[2,1-f][1,2,4]triazin-6-yl)-3-hydroxy propanenitrile] was run?
The IC50 was 1.5 nM.

And the “% inhibition at 5.0E−09M” value [1, 4]?
Its value is 50.3%.

`CCCOc1ccc(S(=O)(=O)N2CCC(CCO[N+](=O)[O-])CC2)cc1-c1nn2c(CCC)c(/C=N/O)c(C)c2c(=O)[nH]1` [Compound 1v, (E)-2-(1-((3-(6-((hydroxyimino)methyl)-5-methyl-4-oxo-7-propyl-3,4-dihydropyrrolo[2,1-f][1,2,4]triazin-2-yl)-4-propoxyphenyl)sulfonyl)piperidin-4-yl)ethyl nitrate] was tested. Which IC40 ([2]; High Glucose (25 mM)) did it give?
The IC40 was 0.66 nM.

And the IC40 ([2]; Intact Endothelium (E+))?
Its IC40 is 0.0082 nM.

And the IC40 ([2]; L-NAME (100 μM))?
The IC40 was 1.412 nM.

And the EC50 [2, 5]?
Its EC50 is 0.181 nM.

And the Emax [2, 5]?
The Emax was 64.2%.

What about the EC50 [2, 6] of the same molecule?
Its EC50 is 0.0111 nM.

What about the Emax [2, 6] of the same molecule?
The Emax was 85.1%.

What about the EC50 [2, 7] of the same molecule?
Its EC50 is 0.267 nM.

And the Emax [2, 7]?
Its Emax is 62%.

What about the EC50 [2, 8] of the same molecule?
The EC50 was 0.218 nM.

What about the Emax [2, 8] of the same molecule?
Its Emax is 48.7%.

And the “lower concentration for 40% relaxation related to sildenafil” value ([2]; Without Endothelium)?
Its value is greater than 130 fold.

What about the IC40 ([2]; Without Endothelium) of the same molecule?
Its IC40 is 7.527 nM.

And the “more potent relaxation as compared to sildenafil (based on EC50)” value ([2]; absence of endothelium)?
Its value is “about 95 fold”.

What about the “more potent relaxation as compared to sildenafil (based on EC50)” value ([2]; intact endothelium) of the same molecule?
Its value is “about 17 fold”.

What about the “relaxation of rat aortic rings, result in words” value ([2]; intact endothelium (FIG. 2A)) of the same molecule?
Its value is “more potent and effective than Sildenafil”.

And the “more potent relaxation as compared to sildenafil (based on EC50)” value ([2]; intact endothelium, pre-exposed to high (25 mM) glucose for 60 min)?
The value was “about 110 fold”.

And the “relaxation of rat aortic rings, result in words” value ([2]; pre-exposed to high glucose (25 mM) (FIG. 2B))?
The value was “clearly more potent and efficacious than 1r”.

And the “more potent relaxation as compared to sildenafil (based on EC50)” value ([2]; presence of L-NAME)?
The value was “about 22 fold”.

What about the “lower concentration for 40% relaxation related to sildenafil” value ([2]; with L-NAME) of the same molecule?
Its value is roughly 68 fold.

And the “lower concentration for 40% relaxation related to sildenafil” value ([2]; with high glucose)?
Its value is roughly 1250 fold.

What about the “lower concentration for 40% relaxation related to sildenafil” value ([2]; with intact endothelium) of the same molecule?
The value was “about 24 fold”.

And the “cGMP formation in hPASMC, activity in words” value [3]?
The value was “significantly higher activity as compared to the reference inhibitor sildenafil”.

For `CCCc1c(C=O)c(C)c2c(=O)[nH]c(-c3cc(S(=O)(=O)N4CCN(CCO)CC4)ccc3OCC)nn12` [Compound 1w, 2-(2-ethoxy-5-((4-(2-hydroxyethyl)piperazin-1-yl)sulfonyl)phenyl)-5-methyl-4-oxo-7-propyl-3,4-dihydropyrrolo[2,1-f][1,2,4]triazine-6-carbaldehyde], which “% inhibition at 5.0E−09M” value [1, 4] is on record?
The value was 75.5%.

How did the “% inhibition at 5.0E−09M” value [1] turn out when “(E)-2-(4-(4-ethoxy-3-(6-((2-hydroxyethoxyimino)methyl)-5-methyl-4-oxo-7-propyl-3,4-dihydropyrrolo[1,2-f][1,2,4]triazin-2-yl)phenylsulfonyl)piperazin-1-yl)ethyl nitrate [Compound 1ak]” was run?
The value was 8.3%.

For “(E)-2-(4-(4-ethoxy-3-(6-((methoxyimino)methyl)-5-methyl-4-oxo-7-propyl-3,4-dihydropyrrolo[1,2-f][1,2,4]triazin-2-yl)phenylsulfonyl)piperazin-1-yl)ethyl nitrate [Compound 1ai]”, which “% inhibition at 5.0E−09M” value [1] is on record?
The value was 0.3%.

Source: patent publication US11242347B2, “2-phenyl-3,4-dihydropyrrolo[2,1-Ff] [1,2,4]triazinone derivatives as phosphodiesterase inhibitors and uses thereof” (TOPADUR PHARMA AG, priority 2015, dated 2022)
